# Biological target: human NK3 receptor (Homo sapiens (Human), UniProt P29371)
# Experiment: [3H]SR142801 competition binding assay
# Conditions: not given
# Procedure: hNK3 receptor binding experiment were performed using [^3H]SR142801 (Catalog No. TRK1035, specific activity: 74.0 Ci/mmol, Amersham, GE Healthcare UK limited, Buckinghamshire, UK) and membrane isolated from HEK293 cells transiently expressing recombinant human NK3 receptor. After thawing, the membrane homogenates were centrifuged at 48,000×g for 10 min at 4° C., the pellets were resuspended in the 50 mM Tris-HCl, 4 mM MnCl2, 1 μM phosphoramidon, 0.1% BSA binding buffer at pH 7.4 to a final assay concentration of 5 μg protein/well. […] At the end of the incubation, membranes were filtered onto unitfilter (96-well white microplate with bonded GF/C filter preincubated 1 h in 0.3% PEI+0.3% BSA, Packard BioScience, Meriden, Conn.) with a Filtermate 196 harvester (Packard BioScience) and washed 4 times with ice-cold 50 mM Tris-HCl, pH 7.4 buffer. Nonspecific binding was measured in the presence of 10μM SB222200 for both radioligands. The radioactivity on the filter was counted (5 min) on a Packard Top-count microplate scintillation counter with quenching correction after addition of 45 μl of microscint 40 (Canberra Packard S.A., Ziirich, Switzerland) and shaking for 1 h. Inhibition curves were fitted according to the Hill equation: y=100/(1+(x/IC50), where nH=slope factor using Excel-fit 4 software (Microsoft). IC50 values were derived from the inhibition curve and the affinity constant (Ki) values were calculated using the Cheng-Prussoff equation Ki =IC50/(1+[L]/KD) where [L] is the concentration of radioligand and KD is its dissociation constant at the receptor, derived from the saturation isotherm. All experiments were performed in duplicate and the mean±standard error (SEM) of the individual Ki values was calculated.
# Chain of human NK3 receptor (P29371 whole entry): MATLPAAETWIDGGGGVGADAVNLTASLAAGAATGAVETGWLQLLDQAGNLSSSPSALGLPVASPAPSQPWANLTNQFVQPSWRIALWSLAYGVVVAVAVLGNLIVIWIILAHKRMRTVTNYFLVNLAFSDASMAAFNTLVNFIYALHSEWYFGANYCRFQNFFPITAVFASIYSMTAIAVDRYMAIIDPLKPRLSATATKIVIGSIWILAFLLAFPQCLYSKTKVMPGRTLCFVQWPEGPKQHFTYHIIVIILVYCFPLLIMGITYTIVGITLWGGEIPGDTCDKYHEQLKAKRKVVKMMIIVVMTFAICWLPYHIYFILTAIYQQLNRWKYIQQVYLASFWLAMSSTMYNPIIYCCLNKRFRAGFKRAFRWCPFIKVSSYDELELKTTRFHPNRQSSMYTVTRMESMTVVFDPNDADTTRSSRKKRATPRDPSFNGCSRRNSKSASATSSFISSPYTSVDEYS
row,SMILES,Ki
1,"CN(C(=O)Oc1ccc(F)cc1)[C@@]1(C)CN(C(=O)C2CCN(C3CCCCC3)CC2)C[C@@H]1c1ccc(Cl)cc1 (racemic) [Example 2, rac-[(3R,4S)-4-(4-Chloro-phenyl)-1-(1-cyclohexyl-piperidine-4-carbonyl)-3-methyl-pyrrolidin-3-yl]-methyl-carbamic acid 4-fluoro-phenyl ester]",0.0201 µM
2,"CN(C(=O)Oc1ccc(F)cc1)[C@@]1(C)CN(C(=O)C2CCN(c3ccc(C#N)cn3)CC2)C[C@@H]1c1ccc(Cl)cc1 (racemic) [Example 9, rac-[(3R,4S)-4-(4-Chloro-phenyl)-1-(5′-cyano-3,4,5,6-tetrahydro-2H-[1,2′]bipyridinyl-4-carbonyl)-3-methyl-pyrrolidin-3-yl]-methyl-carbamic acid 4-fluoro-phenyl ester]",0.0021 µM
3,"CN(C(=O)Oc1ccc(F)cc1)[C@@]1(C)CN(C(=O)C2CCN(c3ccc(F)cn3)CC2)C[C@@H]1c1ccc(Cl)cc1 (racemic) [Example 12, rac-[(3R,4S)-4-(4-Chloro-phenyl)-1-(5′-fluoro-3,4,5,6-tetrahydro-2H-[1,2′]bipyridinyl-4-carbonyl)-3-methyl-pyrrolidin-3-yl]-methyl-carbamic acid 4-fluoro-phenyl ester]",0.0076 µM
4,"CN(C(=O)Oc1ccc(F)cc1)[C@@]1(C)CN(C(=O)c2ccc(-c3ccc(F)cc3)cc2)C[C@@H]1c1ccc(Cl)cc1 (racemic) [Example 16, rac-[(3R,4S)-4-(4-Chloro-phenyl)-1-(4′-fluoro-biphenyl-4-carbonyl)-3-methyl-pyrrolidin-3-yl]-methyl-carbamic acid 4-fluoro-phenyl ester]",0.3 µM
5,"CN(C(=O)Oc1ccc(F)cc1)[C@@H]1CN(C(=O)C2CCN(C(=O)C3(C)CC3)CC2)C[C@@]1(C)c1ccc(Cl)cc1 (racemic) [Example 21, rac-{(3S,4R)-4-(4-Chloro-phenyl)-4-methyl-1-[1-(1-methyl-cyclopropanecarbonyl)-piperidine-4-carbonyl]-pyrrolidin-3-yl}-methyl-carbamic acid 4-fluoro-phenyl ester]",0.0319 µM
6,"CN(C(=O)Oc1ccc(F)cc1)[C@@H]1CN(C(=O)C2CCN(c3ccc(C#N)cc3)CC2)C[C@@]1(C)c1ccc(Cl)cc1 (racemic) [Example 22, rac-{(3S,4R)-4-(4-Chloro-phenyl)-1-[1-(4-cyano-phenyl)-piperidine-4-carbonyl]-4-methyl-pyrrolidin-3-yl}-methyl-carbamic acid 4-fluoro-phenyl ester]",0.0105 µM

# Same assay, conditions: membranes from HEK293 cells transiently expressing recombinant human NK3 receptor; [3H]SR142801; Ki from IC50 by Cheng-Prussoff; read-out: Ki (uM) hNK3
row,SMILES,Ki
1,"CC(C)C(=O)N1CCC(C(=O)N2C[C@H](c3ccc(Cl)cc3)[C@@](C)(N(C)C(=O)Oc3ccc(F)cc3)C2)CC1 (racemic) [Example 1, rac-[(3R,4S)-4-(4-Chloro-phenyl)-1-(1-isobutyryl-piperidine-4-carbonyl)-3-methyl-pyrrolidin-3-yl]-methyl-carbamic acid 4-fluoro-phenyl ester]",0.0105 µM
2,"CN(C(=O)Oc1ccc(F)cc1)[C@@]1(C)CN(C(=O)c2ccc(C#N)cc2)C[C@@H]1c1ccc(Cl)cc1 (racemic) [Example 3, rac-[(3R,4S)-4-(4-Chloro-phenyl)-1-(4-cyano-benzoyl)-3-methyl-pyrrolidin-3-yl]-methyl-carbamic acid 4-fluoro-phenyl ester]",0.0678 µM
3,"CC(=O)N1CCC(C(=O)N2C[C@H](c3ccc(Cl)cc3)[C@@](C)(N(C)C(=O)Oc3ccc(F)cc3)C2)CC1 (racemic) [Example 4, rac-[(3R,4S)-1-(1-Acetyl-piperidine-4-carbonyl)-4-(4-chloro-phenyl)-3-methyl-pyrrolidin-3-yl]-methyl-carbamic acid 4-fluoro-phenyl ester]",0.0116 µM
4,"CN(C(=O)Oc1ccc(F)cc1)[C@@]1(C)CN(C(=O)C2CCOCC2)C[C@@H]1c1ccc(Cl)cc1 (racemic) [Example 5, rac-[(3R,4S)-4-(4-Chloro-phenyl)-3-methyl-1-(tetrahydro-pyran-4-carbonyl)-pyrrolidin-3-yl]-methyl-carbamic acid 4-fluoro-phenyl ester]",0.0864 µM
5,"Cc1cc(C(=O)N2C[C@H](c3ccc(Cl)cc3)[C@@](C)(N(C)C(=O)Oc3ccc(F)cc3)C2)cnn1 (racemic) [Example 6, rac-[(3R,4S)-4-(4-Chloro-phenyl)-3-methyl-1-(6-methyl-pyridazine-4-carbonyl)-pyrrolidin-3-yl]-methyl-carbamic acid 4-fluoro-phenyl ester]",0.0649 µM
6,"CN(C(=O)Oc1ccc(F)cc1)[C@@]1(C)CN(C(=O)C2CCN(C(=O)C3(C)CC3)CC2)C[C@@H]1c1ccc(Cl)cc1 (racemic) [Example 7, rac-{(3R,4S)-4-(4-Chloro-phenyl)-3-methyl-1-[1-(1-methyl-cyclopropanecarbonyl)-piperidine-4-carbonyl]-pyrrolidin-3-yl}-methyl-carbamic acid 4-fluoro-phenyl ester]",0.005 µM
7,"Cc1ccc(N2CCC(C(=O)N3C[C@H](c4ccc(Cl)cc4)[C@@](C)(N(C)C(=O)Oc4ccc(F)cc4)C3)CC2)nc1 (racemic) [Example 8, rac-[(3R,4S)-4-(4-Chloro-phenyl)-3-methyl-1-(5′-methyl-3,4,5,6-tetrahydro-2H-[1,2′]bipyridinyl-4-carbonyl)-pyrrolidin-3-yl]-methyl-carbamic acid 4-fluoro-phenyl ester]",0.013 µM
8,"CN(C(=O)Oc1ccc(F)cc1)[C@@]1(C)CN(C(=O)C2CCN(c3ccc(C#N)cc3)CC2)C[C@@H]1c1ccc(Cl)cc1 (racemic) [Example 10, rac-{(3R,4S)-4-(4-Chloro-phenyl)-1-[1-(4-cyano-phenyl)-piperidine-4-carbonyl]-3-methyl-pyrrolidin-3-yl}-methyl-carbamic acid 4-fluoro-phenyl ester]",0.0038 µM
9,"CC(=O)c1ccc(N2CCC(C(=O)N3C[C@H](c4ccc(Cl)cc4)[C@@](C)(N(C)C(=O)Oc4ccc(F)cc4)C3)CC2)nc1 (racemic) [Example 11, rac-[(3R,4S)-1-(5′-Acetyl-3,4,5,6-tetrahydro-2H-[1,2′]bipyridinyl-4-carbonyl)-4-(4-chloro-phenyl)-3-methyl-pyrrolidin-3-yl]-methyl-carbamic acid 4-fluoro-phenyl ester]",0.0045 µM
10,"CN(C(=O)Oc1ccc(F)cc1)[C@@]1(C)CN(C(=O)C2CCN(c3ccc(Cl)cn3)CC2)C[C@@H]1c1ccc(Cl)cc1 (racemic) [Example 13, rac-[(3R,4S)-4-(4-Chloro-phenyl)-1-(5′-chloro-3,4,5,6-tetrahydro-2H-[1,2′]bipyridinyl-4-carbonyl)-3-methyl-pyrrolidin-3-yl]-methyl-carbamic acid 4-fluoro-phenyl ester]",0.01 µM
11,"CN(C(=O)Oc1ccc(F)cc1)[C@@]1(C)CN(C(=O)c2ccc(C#N)nc2)C[C@@H]1c1ccc(Cl)cc1 (racemic) [Example 14, rac-[(3R,4S)-4-(4-Chloro-phenyl)-1-(6-cyano-pyridine-3-carbonyl)-3-methyl-pyrrolidin-3-yl]-methyl-carbamic acid 4-fluoro-phenyl ester]",0.0774 µM
12,"CN(C(=O)Oc1ccc(F)cc1)[C@@]1(C)CN(C(=O)C2CCN(c3ccc(C(F)(F)F)cn3)CC2)C[C@@H]1c1ccc(Cl)cc1 (racemic) [Example 15, rac-[(3R,4S)-4-(4-Chloro-phenyl)-3-methyl-1-(5′-trifluoromethyl-3,4,5,6-tetrahydro-2H-[1,2′]bipyridinyl-4-carbonyl)-pyrrolidin-3-yl]-methyl-carbamic acid 4-fluoro-phenyl ester]",0.0115 µM
13,"Cc1nc(-c2ccc(C(=O)N3C[C@H](c4ccc(Cl)cc4)[C@@](C)(N(C)C(=O)Oc4ccc(F)cc4)C3)cc2)no1 (racemic) [Example 17, rac-{(3R,4S)-4-(4-Chloro-phenyl)-3-methyl-1-[4-(5-methyl-[1,2,4]oxadiazol-3-yl)-benzoyl]-pyrrolidin-3-yl}-methyl-carbamic acid 4-fluoro-phenyl ester]",0.0354 µM
14,"CN(C(=O)Oc1ccc(F)cc1)[C@@]1(C)CN(C(=O)C2CCN(c3ccc(C#N)nc3)CC2)C[C@@H]1c1ccc(Cl)cc1 (racemic) [Example 18, rac-[(3R,4S)-4-(4-Chloro-phenyl)-1-(6′-cyano-3,4,5,6-tetrahydro-2H-[1,3′]bipyridinyl-4-carbonyl)-3-methyl-pyrrolidin-3-yl]-methyl-carbamic acid 4-fluoro-phenyl ester]",0.0028 µM
15,"COc1ccc(N2CCC(C(=O)N3C[C@H](c4ccc(Cl)cc4)[C@@](C)(N(C)C(=O)Oc4ccc(F)cc4)C3)CC2)nn1 (racemic) [Example 19, rac-{(3R,4S)-4-(4-Chloro-phenyl)-1-[1-(6-methoxy-pyridazin-3-yl)-piperidine-4-carbonyl]-3-methyl-pyrrolidin-3-yl}-methyl-carbamic acid 4-fluoro-phenyl ester]",0.0129 µM
16,"CN(C(=O)Oc1ccc(F)cc1)[C@@]1(C)CN(C(=O)c2ccc(N3CCCCC3=O)cc2)C[C@@H]1c1ccc(Cl)cc1 (racemic) [Example 20, rac-{(3R,4S)-4-(4-Chloro-phenyl)-3-methyl-1-[4-(2-oxo-piperidin-1-yl)-benzoyl]-pyrrolidin-3-yl}-methyl-carbamic acid 4-fluoro-phenyl ester]",0.276 µM

# From patent US8618303B2, “Pyrrolidine derivatives” (Hoffmann-La Roche Inc., priority 2011, dated 2013)
